Experiment: Pharmacokinetic study in rats after intragastric administration of Farfarae Flos extract (plasma, LC-MS/MS)
Format: in vivo
Settings: male, rat, plasma, po, 3.9 g/kg, oral Farfarae Flos extract 3.9 g·kg^−1, mean ± SD
Excerpt: A high-performance liquid chromatography instrument was used to separate three types of compounds (Agilent 1200 series, USA). The HPLC instrument is composed of four parts; a G1322A degasser, G1312A Bin Pump, G1367B auto-sampler, and G1316A thermostatic column compartment. Three types of compounds and three internal standards (ISs) were separated on an Eclipse Plus C18 (4.6 × 100 mm, 1.8 μm). The mobile phase was composed of formic acid aqueous solution (A) and formic acid methanol solution (B). The concentration of formic acid in both A and B solution was 0.1% (v/v). The gradient elution was as follows. The proportion of 10% B changes to 40% from 0 min to 3mins. 40% B changes to 90% from 16 to 18 min. B is maintained at 100% from 19 to 28 min. The flow rate, sample injected volume, and column temperature was 0.35 mL·min^−1, 10 μL, and 35°C, respectively.
Quantitative analysis of all samples was performed on Sciex API 3200 with an electrospray ionization (ESI) source. Analyst 1.6.2 workstation for instrument operation, data management, and data analysis were employed to analyze and process data (AB, Sciex). Ten analyzed compounds and three ISs were optimized during multiple reactions monitoring (MRM). […] MRM parameters of CCLA were set at 353.1-191.0. […] MRM parameters of IAB were set as 515.3-353.2 and MRM parameters of IAA were set at 515.2-353.0. MRM parameters of IAC and tussilagone were set as 515.3-352.9, 391.4-217.4, respectively.
Twenty male rats (4 months old, weight 240 ± 20 g) were obtained commercially from Vital River Laboratory Animal Company (Beijing, China). Before the pharmacokinetic experiments, they were free to eat food and drink water for one week for adapting to the environment when the dark light cycle was 12 hours, while the temperature was maintained at 25 ± 5°C. The animal experiments were guided and strictly approved by Tianjin Hospital animal ethics committee. They were fasted for 12 hours and could only drink freely water before intragastric administration of Farfarae Flos extract. Ten rats in each group were employed for eliminating data variation caused by different animal individuals. All rats in groups 1 and group 2 were orally administrated one time at two dosages of Farfarae Flos extract (carboxymethyl cellulose sodium salt (0.5%) was used to suspend the extract to prepare the administration solution 3.90 g·kg^−1 and 7.80 g·kg^−1), respectively. Rats were anesthetized with ether. The heparinized 1.5 mL polythene tube was used to collect bank plasma samples before administering dose of the extract. About 250 μL plasma samples were collected at each collecting points of 5 min, 10 min, 0.25 h, 0.50 h, 0.75 h, 1 h, 2 h, 4 h, 8 h, 12 h, 24 h, and 36 h via fossa orbitalis after dosing. All plasma samples from collecting points need to be centrifuged at 4,000 rpm for ten minutes. The supernatant fluid of centrifuged plasma samples was obtained and immediately stored at −20°C in a refrigerator until they were analyzed.
The maximum concentration (Cmax) and the time to reach the maximum concentration (Tmax) of ten target compounds were directly calculated by the real concentration-time data in the plasma. The data were expressed as mean ± SD.
Ten microliters of ISs solution (contained puerarin, ferulic acid, and artemisinin) and the plasma sample (100 μL) were added into a clean tube, and then acetonitrile (400 μL) was added to precipitate protein. After centrifugation at 14000 rpm for 10 minutes, a mild nitrogen flow was used to evaporate the liquid of the supernatant to dryness. Then, the residue was dissolved in methanol (100 μL). The solution was vortexed for 3 min, mixed for 3 minutes with ultrasound, and centrifuged for 10 min. Finally, the solution (10 μL) was used to detect concentration of ten target compounds in rat plasma.

Row | Compound | Cmax
1 | O=c1c(O[C@@H]2O[C@H](CO)[C@@H](O)[C@H](O)[C@H]2O)c(-c2ccc(O)c(O)c2)oc2cc(O)cc(O)c12 [Isoquercitrin, isoquercitrin] | 5.81 ± 5.72 ng/mL

Same assay, conditions: male, rat, plasma, po, 7.8 g/kg, oral Farfarae Flos extract 7.8 g·kg^−1, mean ± SD

Row | Compound | Cmax
2 | O=c1c(O[C@@H]2O[C@H](CO)[C@@H](O)[C@H](O)[C@H]2O)c(-c2ccc(O)c(O)c2)oc2cc(O)cc(O)c12 [Isoquercitrin, isoquercitrin] | 10.2 ± 6.83 ng/mL

Same assay, conditions: male; rat plasma, oral Farfarae Flos extract 3.9 g·kg^−1, mean ± SD

Row | Compound | Tmax | half-life
3 | O=c1c(O[C@@H]2O[C@H](CO)[C@@H](O)[C@H](O)[C@H]2O)c(-c2ccc(O)c(O)c2)oc2cc(O)cc(O)c12 [Isoquercitrin, isoquercitrin] | 0.44 ± 0.26 h | 0.88 ± 1.01 h

Same assay, conditions: male; rat plasma, oral Farfarae Flos extract 3.9 g·kg^−1, mean ± SD; read-out: MRT(0–24h)

Row | Compound | MRT last
4 | O=c1c(O[C@@H]2O[C@H](CO)[C@@H](O)[C@H](O)[C@H]2O)c(-c2ccc(O)c(O)c2)oc2cc(O)cc(O)c12 [Isoquercitrin, isoquercitrin] | 3.16 ± 3.46 h

Same assay, conditions: male; rat plasma, oral Farfarae Flos extract 3.9 g·kg^−1, mean ± SD; read-out: MRT(0–∞)

Row | Compound | MRT inf
5 | O=c1c(O[C@@H]2O[C@H](CO)[C@@H](O)[C@H](O)[C@H]2O)c(-c2ccc(O)c(O)c2)oc2cc(O)cc(O)c12 [Isoquercitrin, isoquercitrin] | 7.56 ± 6.22 h

Same assay, conditions: male; rat plasma, oral Farfarae Flos extract 7.8 g·kg^−1, mean ± SD

Row | Compound | Tmax | half-life
6 | O=c1c(O[C@@H]2O[C@H](CO)[C@@H](O)[C@H](O)[C@H]2O)c(-c2ccc(O)c(O)c2)oc2cc(O)cc(O)c12 [Isoquercitrin, isoquercitrin] | 0.27 ± 0.1 h | 1.19 ± 1.65 h

Same assay, conditions: male; rat plasma, oral Farfarae Flos extract 7.8 g·kg^−1, mean ± SD; read-out: MRT(0–24h)

Row | Compound | MRT last
7 | O=c1c(O[C@@H]2O[C@H](CO)[C@@H](O)[C@H](O)[C@H]2O)c(-c2ccc(O)c(O)c2)oc2cc(O)cc(O)c12 [Isoquercitrin, isoquercitrin] | 2.81 ± 1.79 h

Same assay, conditions: male; rat plasma, oral Farfarae Flos extract 7.8 g·kg^−1, mean ± SD; read-out: MRT(0–∞)

Row | Compound | MRT inf
8 | O=c1c(O[C@@H]2O[C@H](CO)[C@@H](O)[C@H](O)[C@H]2O)c(-c2ccc(O)c(O)c2)oc2cc(O)cc(O)c12 [Isoquercitrin, isoquercitrin] | 9.94 ± 10.4 h

Same assay, conditions: rat plasma, oral Farfarae Flos extract 3.9 g·kg^−1, mean ± SD

Row | Compound | AUC(0–24h)
9 | O=c1c(O[C@@H]2O[C@H](CO)[C@@H](O)[C@H](O)[C@H]2O)c(-c2ccc(O)c(O)c2)oc2cc(O)cc(O)c12 [Isoquercitrin, isoquercitrin] | 7.284 ± 5.643 ng/mL ∗ h

Same assay, conditions: rat plasma, oral Farfarae Flos extract 7.8 g·kg^−1, mean ± SD

Row | Compound | AUC(0–24h) | AUC(0–∞)
10 | O=c1c(O[C@@H]2O[C@H](CO)[C@@H](O)[C@H](O)[C@H]2O)c(-c2ccc(O)c(O)c2)oc2cc(O)cc(O)c12 [Isoquercitrin, isoquercitrin] | 16.15 ± 12.24 ng/mL ∗ h | 25.18 ± 13.92 ng/mL ∗ h

Experiment: Stability of QC samples in rat plasma (24 h, freeze-thaw, 4 weeks)
Format: in vitro ADME
Settings: high concentration level (3000-30000 ng·mL^−1), 24 hours at 20°C, six replicates
Experimental: Stock solution of 10 analytical compounds (1.00 mg·mL^−1) and three internal standards (ISs) was dissolved in methanol and placed in the refrigerator before testing. Methanol was used to prepare ferulic acid (IS1), puerarin (IS2), and artemisinin (IS3) solutions to reach a concentration of 1 μg mL^−1, respectively. A specific volume of each analyte stock solution is mixed together to prepare the standard working solution containing 10 analytes with a concentration of 10 times at LLOQ and three levels (high, medium, and low). Quality control (QC) samples for methodological validation were prepared to obtain the final concentration by adding standard working solution (10 μL) into blank plasma samples (100 μL).
Four concentration levels of ICB and ICA were 4, 12, 400, and 12000 ng mL^−1, respectively. Four concentration levels of caffeic acid were 10, 30, 1000, and 30000 ng·mL^−1, respectively.
In the stability test, 24-hour stability (The samples were placed for 24 hours at 20°C and then measured), freeze-thaw cycles (The sample was injected after the temperature changing from −20°C to 20°C), and 4 weeks stability (The sample was determined after stored at −80°C for 4 weeks) of representative QC samples were all tested. All of them were assayed with six replicates.

Row | Compound | 24 h stability Remain (%)
11 | O=c1c(O[C@@H]2O[C@H](CO)[C@@H](O)[C@H](O)[C@H]2O)c(-c2ccc(O)c(O)c2)oc2cc(O)cc(O)c12 [Isoquercitrin, isoquercitrin] | 113%

Same assay, conditions: high concentration level (3000-30000 ng·mL^−1), freeze-thaw cycles −20°C to 20°C, six replicates

Row | Compound | Freeze-thaw stability, percent remaining
12 | O=c1c(O[C@@H]2O[C@H](CO)[C@@H](O)[C@H](O)[C@H]2O)c(-c2ccc(O)c(O)c2)oc2cc(O)cc(O)c12 [Isoquercitrin, isoquercitrin] | 110%

Same assay, conditions: high concentration level (3000-30000 ng·mL^−1), stored at −80°C for 4 weeks, six replicates

Row | Compound | Long stability Remain (%)
13 | O=c1c(O[C@@H]2O[C@H](CO)[C@@H](O)[C@H](O)[C@H]2O)c(-c2ccc(O)c(O)c2)oc2cc(O)cc(O)c12 [Isoquercitrin, isoquercitrin] | 92.3%

Same assay, conditions: low concentration level (3-30 ng·mL^−1), 24 hours at 20°C, six replicates

Row | Compound | 24 h stability Remain (%)
14 | O=c1c(O[C@@H]2O[C@H](CO)[C@@H](O)[C@H](O)[C@H]2O)c(-c2ccc(O)c(O)c2)oc2cc(O)cc(O)c12 [Isoquercitrin, isoquercitrin] | 84.4%

Same assay, conditions: low concentration level (3-30 ng·mL^−1), freeze-thaw cycles −20°C to 20°C, six replicates

Row | Compound | Freeze-thaw stability, percent remaining
15 | O=c1c(O[C@@H]2O[C@H](CO)[C@@H](O)[C@H](O)[C@H]2O)c(-c2ccc(O)c(O)c2)oc2cc(O)cc(O)c12 [Isoquercitrin, isoquercitrin] | 104%

Same assay, conditions: low concentration level (3-30 ng·mL^−1), stored at −80°C for 4 weeks, six replicates

Row | Compound | Long stability Remain (%)
16 | O=c1c(O[C@@H]2O[C@H](CO)[C@@H](O)[C@H](O)[C@H]2O)c(-c2ccc(O)c(O)c2)oc2cc(O)cc(O)c12 [Isoquercitrin, isoquercitrin] | 92.0%

Same assay, conditions: medium concentration level (100-1000 ng·mL^−1), 24 hours at 20°C, six replicates

Row | Compound | 24 h stability Remain (%)
17 | O=c1c(O[C@@H]2O[C@H](CO)[C@@H](O)[C@H](O)[C@H]2O)c(-c2ccc(O)c(O)c2)oc2cc(O)cc(O)c12 [Isoquercitrin, isoquercitrin] | 113%

Same assay, conditions: medium concentration level (100-1000 ng·mL^−1), freeze-thaw cycles −20°C to 20°C, six replicates

Row | Compound | Freeze-thaw stability, percent remaining
18 | O=c1c(O[C@@H]2O[C@H](CO)[C@@H](O)[C@H](O)[C@H]2O)c(-c2ccc(O)c(O)c2)oc2cc(O)cc(O)c12 [Isoquercitrin, isoquercitrin] | 111%

Same assay, conditions: medium concentration level (100-1000 ng·mL^−1), stored at −80°C for 4 weeks, six replicates

Row | Compound | Long stability Remain (%)
19 | O=c1c(O[C@@H]2O[C@H](CO)[C@@H](O)[C@H](O)[C@H]2O)c(-c2ccc(O)c(O)c2)oc2cc(O)cc(O)c12 [Isoquercitrin, isoquercitrin] | 105%

Source: publication PMC8970883, “Simultaneous Determination of Seven Phenolic Acids, Two Flavonoids, and Tussilagone in Rat Plasma after Administration of Farfarae Flos Extract by LC–MS/MS” (Evidence-based Complementary and Alternative Medicine : eCAM, 2022)
